Like-named read-outs stand apart in the source and are kept apart here.
What was measured:
[1] = tested on: CCRF-CEM; assay: MTS cytotoxic assay, CCRF-CEM; format: cell-based; conditions: Homo sapiens, 72 h
Source text: (§1) If not indicated otherwise, the cell lines were purchased from the American Type Culture Collection (ATCC). […] K562 is the erythroid-myeloid precursor cell line derived from chronic myeloid leukemia carrying the BCR-ABL hybrid gene. A549, MCF-7, PC-3, 5637, U-2 OS, and MiaPaCa-2 are cells derived from lung, breast, prostate, bladder carcinoma, osteosarcoma, and pancreatic adenocarcinoma, respectively. HEK 293T are transformed human embryonic kidney cells, and L929 (Sigma, St. Louis, MS, USA) are transformed mouse fibroblasts. HCT116, cells from colorectal carcinoma, and their p53 gene knock-out variant (HCT116p53-/-) were purchased from Horizon Discovery. This cell line is a model of human tumors bearing p53 loss-of-function mutations or biallelic deletion of the p53 gene, frequently associated with poor prognosis. The MRC-5 and BJ cells were used as noncancerous cells; more specifically, they are human fibroblasts from the lungs and foreskin, respectively. According to the supplier’s recommendations, all cells were cultured at 37 °C in a 5% CO2 atmosphere and 100% humidity. The culture media used were: DMEM, RPMI 1640, and MEM (according to a cell line); all were supplemented with 5 g L^−1 glucose, 10% fetal calf serum, 2 mM glutamine, 100 U mL^−1 penicillin, 100 µg mL^−1 streptomycin, and NaHCO3. Cells were passaged every two or three days using 0.25% trypsin plus 0.01% EDTA (ethylenediamine tetraacetic acid) in phosphate-buffered saline.
(§2) To evaluate compound cytotoxicity, cells were seeded in 384-well microtiter plates in a volume of […]. The next day, aliquots of the tested derivatives were transferred with Echo550 acoustic liquid handler (Labcyte) to obtain dose response curves with dilution factor 4. The experiments were performed in technical duplicates and three or more biological replicates. After 72 h of incubation in a humidified incubator, […] of the MTS/PMS stock solution were pipetted into each well. After another 1–4 h of incubation, the absorbance at 490 nm was measured using an EnVision Multilabel Plate Reader (PerkinElmer).

[2] = tested on: K562; assay: MTS cytotoxic assay, K562; format: cell-based; conditions: Homo sapiens
Source text: as §1, §2

[3] = tested on: A549; assay: MTS cytotoxic assay, A549; format: cell-based; conditions: Homo sapiens
Source text: as §1, §2

[4] = tested on: HCT116; assay: MTS cytotoxic assay, HCT116; format: cell-based; conditions: Homo sapiens
Source text: as §1, §2

[5] = tested on: HCT116p53-/-; assay: MTS cytotoxic assay, HCT116p53-/-; format: cell-based; conditions: Homo sapiens, 72 h
Source text: as §1, §2

[6] = tested on: MiaPaCa-2; assay: MTS cytotoxic assay, MiaPaCa-2; format: cell-based; conditions: Homo sapiens
Source text: as §1, §2

[7] = tested on: MCF-7; assay: MTS cytotoxic assay, MCF-7; format: cell-based; conditions: Homo sapiens
Source text: as §1, §2

[8] = tested on: U-2 OS; assay: MTS cytotoxic assay, U-2 OS; format: cell-based; conditions: Homo sapiens, U2OS, 72 h
Source text: as §1, §2

[9] = tested on: 5637; assay: MTS cytotoxic assay, 5637; format: cell-based; conditions: Homo sapiens, 72 h
Source text: as §1, §2

[10] = tested on: PC-3; assay: MTS cytotoxic assay, PC-3; format: cell-based; conditions: Homo sapiens
Source text: as §1, §2

[11] = tested on: HEK 293T; assay: MTS cytotoxic assay, HEK 293T; format: cell-based; conditions: Homo sapiens, 72 h
Source text: as §1, §2

[12] = tested on: BJ; assay: MTS cytotoxic assay, BJ; format: cell-based; conditions: Homo sapiens, 72 h
Source text: as §1, §2

[13] = tested on: L929; assay: MTS cytotoxic assay, L929; format: cell-based, mouse
Source text: as §1, §2

[14] = tested on: CCRF-CEM cells; assay: Cell cycle arrest and cell death analysis by flow cytometry (propidium iodide, pH3Ser10); format: cell-based, human; conditions: % of positive cells
Experimental: Together with the CG-treated cells, a vehicle-treated sample was harvested at the same time point. After 24 h, the cells were washed with cold phosphate-buffered saline, fixed dropwise in 70% ethanol, and stored overnight at −20 °C. The cells were then washed with hypotonic citrate buffer, treated with RNAse (50 µg mL^−1), and stained with propidium iodide. Flow cytometry using a 488 nm laser (FACS-Calibur, Becton Dickinson, NJ, USA) was used for measurement. The cell cycle was analyzed by the ModFitLT program (Verity), and apoptosis was measured in a logarithmic model expressing the percentage of particles with a lower propidium content than cells in the G0/G1 phase (<G1) of the cell cycle in the CellQuest program (Becton Dickinson). Half of the sample was used to label cells with pH3^Ser10-FITC antibody (Exbio) for subsequent flow cytometry analysis of mitotic cells.

[15] = tested on: CCRF-CEM cells; assay: BrDU incorporation analysis (DNA synthesis); format: cell-based, human; conditions: % of positive cells
Experimental: The cells were cultured in the same way as the cell cycle analysis method. Just before harvesting, 5-bromo-2′-deoxyuridine (BrDU) of 10 µM concentration was added to the cells for pulse-labeling for 30 min. Then, the cells were fixed with −20 °C cold 70% ethanol and stored in a freezer for 16 h. Before antibody staining, the samples were incubated on ice for 30 min, washed once with phosphate-buffered saline (PBS), and re-suspended in 2 M of HCl for 30 min at room temperature to hydrolyze their DNA. After neutralization with 0.1 M of Na2B4O7 (borax) solution, the cells were washed with PBS containing 0.5% Tween-20 and 1% BSA. This was followed by staining with the primary anti-BrDU antibody (Exbio) for 30 min at room temperature. Then, the cells were washed with PBS and stained with a secondary anti-mouse antibody conjugated to fluorescein isothiocyanate (Merck-Sigma, St. Louis, MS, USA) at room temperature in the dark. After another washing with PBS and incubation with propidium iodide (0.1 mg·mL^−1) and RNAse A (0.5 mg·mL^−1) for 1 h at room temperature in the dark, the cells were analyzed by flow cytometry using a 488 nm laser (FACSCalibur, Becton Dickinson, Franklin Lakes, NJ, USA).

[16] = tested on: CCRF-CEM cells; assay: BrU incorporation analysis (RNA synthesis); format: cell-based, human; conditions: % of positive cells
Experimental: The cells were cultured and processed as described above. Before harvesting, the cells were pulse-labeled with 1 mM of 5-bromouridine (BrU) for 30 min. The cells were then fixed in 1% buffered paraformaldehyde with 0.05% NP-40 at room temperature for 15 min, and then stored at 4 °C overnight. Before measurement, they were washed with 1% glycine in PBS, washed again with PBS, and stained with primary anti-BrdU antibody cross-reactive to BrU (Exbio) for 30 min at room temperature in the dark. From this point on, the experiment was performed exactly as in the method described above.

Row | Structure (SMILES) | IC50 [1] [nM] | IC50 ([2]; K562, 72 h) [nM] | IC50 ([3]; A549, 72 h) [nM] | IC50 ([4]; HCT-116, 72 h) [nM] | IC50 [5] [nM] | IC50 ([6]; MIA PaCa-2, 72 h) [nM] | < G1 (apoptotic cells) ([14]; 1 × IC50, 24 h) [%] | G0/G1 ([14]; 1 × IC50, 24 h) [%] | G2/M ([14]; 1 × IC50, 24 h) [%] | M (Phospho-Histone3 (Ser10)) ([14]; 1 × IC50, 24 h) [%] | S ([14]; 1 × IC50, 24 h) [%] | < G1 (apoptotic cells) ([14]; 5 × IC50, 24 h) [%] | G0/G1 ([14]; 5 × IC50, 24 h) [%] | G2/M ([14]; 5 × IC50, 24 h) [%] | M (Phospho-Histone3 (Ser10)) ([14]; 5 × IC50, 24 h) [%] | S ([14]; 5 × IC50, 24 h) [%] | BrDU ([15]; 1 × IC50, 24 h) [%] | BrDU ([15]; 5 × IC50, 24 h) [%] | BrU ([16]; 1 × IC50, 24 h) [%] | BrU ([16]; 5 × IC50, 24 h) [%] | other results
1 | CO[C@H]1C[C@H](O[C@H]2CC[C@]3(C=O)[C@H]4CC[C@]5(C)[C@@H](C6=CC(=O)OC6)CC[C@]5(O)[C@@H]4CC[C@]3(O)C2)O[C@H](C)[C@H]1O [Cy, cymarin] | 14 ± 2.1 | 25 ± 4.5 | 15 ± 1.8 | 21 ± 2.5 | 19 ± 3.8 | 44 ± 8.6 | 2.89 | 35.78 | 24.35 | 1.43 | 39.87 | 7.01 | 40.34 | 28.49 | 1.08 | 31.17 | 32.34 | 21.37 | 35.63 | 27.52 | IC50 ([7]; MCF7, 72 h): 29 ± 8.1 nM; IC50 [8]: 43 ± 1.8 nM; IC50 [9]: 89 ± 5.5 nM; IC50 ([10]; PC-3, 72 h): 26 ± 2.9 nM; IC50 ([11]; HEK-293T): 3.02 ± 1.4 nM; IC50 ([12]; BJ): 54 ± 10 nM; IC50 ([13]; Mus musculus, L929, 72 h): > 10000 nM
2 | C[C@]12CC[C@H]3[C@@H](CCC4=C[C@@H](O[C@@H]5OC[C@@H](O)[C@H](O)[C@H]5O)CC[C@@]43C=O)[C@@]1(O)CC[C@@H]2C1=CC(=O)OC1 [deHyr, deglucohyrcanoside] | 110 ± 21 | 130 ± 21 | 90 ± 14 | 140 ± 16 | 130 ± 23 | 120 ± 5.2 | 22.02 | 44.90 | 37.50 | 1.44 | 17.60 | 27.43 | 39.12 | 26.34 | 1.56 | 34.53 | 37.40 | 6.08 | 38.91 | 12.17 | IC50 ([7]; MCF7, 72 h): 119 ± 6.4 nM; IC50 [8]: 165 ± 11 nM; IC50 [9]: 398 ± 46 nM; IC50 ([10]; PC-3, 72 h): 122 ± 4.7 nM; IC50 ([11]; HEK-293T): 38 ± 0.97 nM; IC50 ([12]; BJ): 230 ± 35 nM; IC50 ([13]; Mus musculus, L929, 72 h): > 10000 nM
3 | C[C@@H]1O[C@@H](O[C@H]2C[C@@H](O)[C@]3(CO)[C@H]4[C@H](O)C[C@]5(C)[C@@H](C6=CC(=O)OC6)CC[C@]5(O)[C@@H]4CC[C@]3(O)C2)[C@H](O)[C@H](O)[C@H]1O [Ob, ouabain] | – | – | – | – | – | – | 20.68 | 40.42 | 33.80 | 1.73 | 25.78 | 33.31 | 33.94 | 25.27 | 0.63 | 40.80 | 40.53 | 19.29 | 39.77 | 6.56 | IC50 ([1]; MTS, read-out: IC50): 32 ± 5.8 nM; IC50 ([2]; K562, MTS, 72 h, read-out: IC50): 57 ± 6.2 nM; IC50 ([3]; A549, MTS, 72 h, read-out: IC50): 22 ± 0.94 nM; IC50 ([4]; HCT-116, HCT116, MTS, 72 h, read-out: IC50): 30 ± 3.6 nM; IC50 ([5]; HCT116p53-/-, MTS, read-out: IC50): 28 ± 7.6 nM; IC50 ([6]; MIA PaCa-2, MiaPaCa-2, MTS, 72 h, read-out: IC50): 49 ± 2.01 nM; IC50 ([7]; MCF7, MCF-7, MTS, 72 h, read-out: IC50): 52 ± 5.6 nM; IC50 ([8]; U-2 OS, MTS, read-out: IC50): 59 ± 1.1 nM; IC50 ([9]; 5637, MTS, read-out: IC50): 110 ± 11 nM; IC50 ([10]; PC-3, MTS, 72 h, read-out: IC50): 49 ± 1.4 nM; IC50 ([11]; HEK 293T, MTS, read-out: IC50): 35 ± 1.2 nM; IC50 ([12]; BJ noncancerous foreskin fibroblasts, MTS, read-out: IC50): 54 ± 9.9 nM; IC50 ([13]; L929 mouse transformed fibroblasts, MTS, 72 h, read-out: IC50): > 10000 nM

Source: paper PMC7827417, “Steroid Glycosides Hyrcanoside and Deglucohyrcanoside: On Isolation, Structural Identification, and Anticancer Activity” (Foods, 2021)
